Measured values published in US12655072B2, “Formulation system for compositions for enhancing nitrogen stabilizers” (Verdesian Life Sciences U.S., LLC, priority 2020, dated 2026).

Key:
soil = assay: Field study: soil collection for determination of N-NO3 and N-NH4; type: in vivo
Description: (§1) The activity of nitrate reductase enzyme at V2-V3 and flowering (first fully developed leaf, three plants per plot) was measured. In addition, soil collection was performed for the determination of N-NO3 and N-NH4 up to 30 days after the application of the cover. This methodology was adapted by Cataldo et al (1975) and Kemper; Zewers (1986). Soil Fertility Center ([…]). Growth analysis was performed on dry plant mass every 30 days. Harvesting was performed at physiological maturity. The plants of the three central lines of each plot was harvested excluding 1.0 meter at each end. The rows were measured and the number of plants and ears per row harvested were counted. After harvesting, manual threshing was performed and the 100 grain mass was determined as well as the yield of the crop. Harvest results were estimated for kg/ha and bu/acre.

nitrate reductase enzyme = assay: Field study: activity of nitrate reductase enzyme in the leaves; type: in vivo, corn
Description: as §1

[1] = tested on: corn hybrid AG 8088 VT PRO; assay: Field study, no-till rainfed corn: harvest, dry plant mass, N content; type: in vivo; conditions: 135 kg/ha of N
Description: A field study was carried out of an area under no-till system that was cultivated with rainfed corn (i.e., without irrigation). The corn cultured was a corn hybrid AG 8088 VT PRO (High yield) with a Standak Top of 100 mL/ha and a plant density of 77,000 plants/ha. The following three formulations were applied at three different rates ([…]) to a field: • Trident Formulation (10-10-10; % polymer-% DCD-% NBPT) • Trident V Formulation (5-5-15; % polymer-% DCD-% NBPT) • Trident N Formulation (5-20-5; % polymer-% DCD-% NBPT)
As a control, plants were only treated with the nitrogen fertilizer (e.g., UAN with 30%-45% N) or were left untreated.
The nitrogen fertilizer was applied with 135 kg/ha of N, which corresponds to a dose of 75N/bu for 10.8 ton/ha of maize. In addition a typical herbicide, fungicide and insecticide program was adopted to remove all study variability due to weeds, diseases or insects throughout the study period;
The activity of nitrate reductase enzyme at V2-V3 and flowering (first fully developed leaf, three plants per plot) was measured. In addition, soil collection was performed for the determination of N—NO3 and N—NH4 up to 30 days after the application of the cover. This methodology was adapted by Cataldo et al (1975) and Kemper; Zewers (1986). Soil Fertility Center (CEFERT). Growth analysis was performed on dry plant mass every 30 days. Harvesting was performed at physiological maturity. The plants of the three central lines of each plot was harvested excluding 1.0 meter at each end. The rows were measured and the number of plants and ears per row harvested were counted. After harvesting, manual threshing was performed and the 100 grain mass was determined as well as the yield of the crop. Harvest results were estimated for kg/ha and bu/acre.

[2] = cited from earlier work
[3] = first collection within 30 days
[4] = second collection within 30 days

1 ANR (activity of the enzyme nitrate reductase in the leaves) (nitrate reductase enzyme; first measurement (measured at V2-V3 and flowering))	2 ANR (activity of the enzyme nitrate reductase in the leaves) (nitrate reductase enzyme; second measurement (measured at V2-V3 and flowering))	Compound	1 NH4 (NH4 values in the soil) (soil; [3])	1 NO3 (NO3 values in the soil) (soil; [3])	2 NH4 (NH4 values in the soil) (soil; [4])	2 NO3 (NO3 values in the soil) (soil; [4])	MSCaule (production of dry mass of corn plants: corn plant stems) [1]	MSEspiga [1]	MSFolhas (production of dry mass of corn plants: leaves) [1]	MSTotal (production of total dry mass of corn plants) [1]	N Folha (leaf nitrogen content) [1]	N Grão [1]	grains of corn on the corn ear (FIG. 3) ([1]; compared to untreated)	solubility in water [2]
137.51	74.82	NC(N)=O [Urea N, urea]	31.97 mg/kg	34.16 mg/kg	25.93 mg/kg	27.07 mg/kg	148.04 g plant−1	191.75 g plant−1	80.28 g plant−1	420.06 g plant−1	2.24 dag kg−1	115.04 kg ha−1	exhibited more grains of corn compared to ears that were untreated	
		N#CN=C(N)N [dicyandiamide]												about 41 g/l
